Source: ChEMBL document CHEMBL1155247, “SAR and biological evaluation of SEN12333/WAY-317538: Novel alpha 7 nicotinic acetylcholine receptor agonist” (Bioorg Med Chem, 2009)

Target: Neuronal acetylcholine receptor subunit alpha-7 (Rattus norvegicus) (UniProt Q05941)
Assay: Selectivity for rat alpha7 nAChR over human alpha3 nAChR

## Cl.O=C(CCCCN1CCOCC1)Nc1ccc(-c2cccnc2)cc1
  Selectivity ratio: 5.3
